Results published in PubChem BioAssay (NCI).
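Where inhibition never reached the appropriate level, the endpoint shown equals the highest concentration tested. Otherwise, values were interpolated linearly from a five-concentration, 48-hour dose response in 96-well plates. TGI: concentration producing complete growth inhibition.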

What was measured:
Test in all cases: DTP human tumour cell line panel, 48 h
786-0 renal = test system: 786-0 renal
A498 renal = test system: A498 renal
A549 NSCLC = test system: A549 NSCLC
ACHN renal = test system: ACHN renal
BT-549 breast = test system: BT-549 breast
CAKI-1 renal = test system: CAKI-1 renal
CCRF-CEM leukemia = test system: CCRF-CEM leukemia
COLO 205 colon = test system: COLO 205 colon
DU-145 prostate = test system: DU-145 prostate
EKVX NSCLC = test system: EKVX NSCLC
HCC-2998 colon = test system: HCC-2998 colon
HCT-116 colon = test system: HCT-116 colon
HCT-15 colon = test system: HCT-15 colon
HL-60(TB) leukemia = test system: HL-60(TB) leukemia
HOP-62 NSCLC = test system: HOP-62 NSCLC
HOP-92 NSCLC = test system: HOP-92 NSCLC
HS 578T breast = test system: HS 578T breast
HT29 colon = test system: HT29 colon
IGROV1 ovarian = test system: IGROV1 ovarian
K-562 leukemia = test system: K-562 leukemia
KM12 colon = test system: KM12 colon
LOX IMVI melanoma = test system: LOX IMVI melanoma
M14 melanoma = test system: M14 melanoma
MALME-3M melanoma = test system: MALME-3M melanoma
MCF7 breast = test system: MCF7 breast
MDA-MB-231 breast = test system: MDA-MB-231 breast
MDA-MB-435 = test system: MDA-MB-435
MDA-N = test system: MDA-N
MOLT-4 leukemia = test system: MOLT-4 leukemia
NCI-H226 lung = test system: NCI-H226 lung
NCI-H23 lung = test system: NCI-H23 lung
NCI-H460 lung = test system: NCI-H460 lung
NCI-H522 lung = test system: NCI-H522 lung
NCI/ADR-RES ovarian = test system: NCI/ADR-RES ovarian
OVCAR-3 ovarian = test system: OVCAR-3 ovarian
OVCAR-4 ovarian = test system: OVCAR-4 ovarian
OVCAR-5 ovarian = test system: OVCAR-5 ovarian
OVCAR-8 ovarian = test system: OVCAR-8 ovarian
PC-3 prostate = test system: PC-3 prostate
RPMI-8226 leukemia = test system: RPMI-8226 leukemia
RXF 393 renal = test system: RXF 393 renal
SF-268 CNS = test system: SF-268 CNS
SF-295 CNS = test system: SF-295 CNS
SF-539 CNS = test system: SF-539 CNS
SK-MEL-2 melanoma = test system: SK-MEL-2 melanoma
SK-MEL-28 melanoma = test system: SK-MEL-28 melanoma
SK-MEL-5 melanoma = test system: SK-MEL-5 melanoma
SK-OV-3 ovarian = test system: SK-OV-3 ovarian
SN12C renal = test system: SN12C renal
SNB-19 CNS = test system: SNB-19 CNS
SNB-75 CNS = test system: SNB-75 CNS
SR leukemia = test system: SR leukemia
SW-620 colon = test system: SW-620 colon
T-47D breast = test system: T-47D breast
TK-10 renal = test system: TK-10 renal
U251 CNS = test system: U251 CNS
UACC-257 melanoma = test system: UACC-257 melanoma
UACC-62 melanoma = test system: UACC-62 melanoma
UO-31 renal = test system: UO-31 renal

Measured: TGI

Fc1ccc(N2C(=S)SC(=Nc3ccccc3)C2=Nc2ccccc2)cc1
> 46.4 µM: CCRF-CEM leukemia
> 100 µM: all other assays above

c1cnc2c(c1)ccc1cccnc12
> 26.9 µM: M14 melanoma
5.5 µM: CCRF-CEM leukemia
> 78.6 µM: EKVX NSCLC
> 23.5 µM: NCI-H226 lung
7.98 µM: NCI-H460 lung
> 49.5 µM: UO-31 renal
27.3 µM: CAKI-1 renal
> 39.7 µM: SNB-75 CNS
> 74.7 µM: NCI/ADR-RES ovarian
> 86.6 µM: OVCAR-3 ovarian
> 88.4 µM: OVCAR-4 ovarian
> 28.2 µM: SN12C renal
> 52.7 µM: K-562 leukemia
> 34 µM: SK-MEL-5 melanoma
> 83.3 µM: COLO 205 colon
7.89 µM: RPMI-8226 leukemia
97.8 µM: HS 578T breast
> 35.3 µM: MALME-3M melanoma
4.26 µM: SR leukemia
3.04 µM: HL-60(TB) leukemia
> 62.4 µM: HCC-2998 colon
> 31.5 µM: UACC-257 melanoma
> 92 µM: TK-10 renal
8.37 µM: MOLT-4 leukemia
> 100 µM: all other assays above
